Patent US20250221996A1, “HETEROCYCLIC COMPOUNDS, COMPOSITIONS THEREOF, AND METHODS OF TREATMENT THEREWITH” (BeiGene, Ltd., priority 2022, published 2025)

The compounds below were run on pERK1/2(THR202/TYR204) level in AsPC-1 cells (assay: pERK assay (HTRF) in AsPC-1 cell line). Details: 2 h compound treatment.
Type: cell-based
Procedure: AsPC-1 cell line was used in this study. Cells were maintained in RPMI-1640 supplemented with 10% fetal bovine serum (Thermo Fisher), 50 units/mL penicillin and streptomycin (Thermo Fisher) and kept at 37° C. in a humidified atmosphere of 5% CO2 in air. Cells were reinstated from frozen stocks that were laid down within 30 passages from the original cells purchased. 30000 cells per well were seeded into a 96-well plate and incubated overnight. Cells were treated with a 10-point dilution series. The final compound concentration is from 0 to 10 μM. After 2 h compound treatment, cells were lysed, and the pERK1/2(THR202/TYR204) level in the cell lysates was detected by HTRF kit (Cisbio). In brief, a total of 16 μL of cell lysate from each well of a 96-well plate was transferred to a 384-well white assay plate. Lysate from each well was incubated with 2 μL of Eu3+-cryptate (donor) labeled anti-phospho-ERK1/2 and 2 μL of D2 (acceptor) labeled anti-phospho-ERK1/2 antibodies (Cisbio) overnight in dark at room temperature. When donor and acceptor are in close proximity, excitation of the donor with laser triggers a Fluorescence Resonance Energy Transfer (FRET) towards the acceptor, which in turn fluoresces at 655 nm wavelength. FRET signals were measured using a PHERAstar FSX reader (BMG Labtech). IC50 determination was performed by fitting the curve of percent inhibition versus the log of the inhibitor concentration using Dotmatics.
With `N#Cc1c(N)sc2c(F)ccc(-c3c(C(F)(F)F)cc4c(N5CC6CCC(C5)N6)nc(OCC56COC(C(F)F)(C5)C6)nc4c3F)c12` (single isomer, unassigned) [Example 1-Isomer 1, 4-(4-(3,8-diazabicyclo[3.2.1]octan-3-yl)-2-((1-(difluoromethyl)-2-oxabicyclo[2.1.1]hexan-4-yl)methoxy)-8-fluoro-6-(trifluoromethyl)quinazolin-7-yl)-2-amino-7-fluorobenzo[b]thiophene-3-carbonitrile] the IC50 was 2570 nM. Compound `N#Cc1c(N)sc2c(F)ccc(-c3c(C(F)(F)F)cc4c(N5CC6CCC(C5)N6)nc(OCC56COC(C(F)F)(C5)C6)nc4c3F)c12` (single isomer, unassigned) [Example 1-Isomer 2, 4-(4-(3,8-diazabicyclo[3.2.1]octan-3-yl)-2-((1-(difluoromethyl)-2-oxabicyclo[2.1.1]hexan-4-yl)methoxy)-8-fluoro-6-(trifluoromethyl)quinazolin-7-yl)-2-amino-7-fluorobenzo[b]thiophene-3-carbonitrile] has an IC50 of 84 nM. Work on `N#Cc1c(N)sc2c(F)ccc(-c3c(Cl)cc4c(N5CC6CCC(C5)N6)nc(OCC56COC(C5)C6)nc4c3F)c12` (single isomer, unassigned) [Example 2-Isomer 1, 4-(2-((2-oxabicyclo[2.1.1]hexan-4-yl)methoxy)-4-(3,8-diazabicyclo[3.2.1]octan-3-yl)-6-chloro-8-fluoroquinazolin-7-yl)-2-amino-7-fluorobenzo[b]thio phene-3-carbonitrile] yielded an IC50 of 160 nM. For `N#Cc1c(N)sc2c(F)ccc(-c3c(Cl)cc4c(N5CC6CCC(C5)N6)nc(OCC56COC(C5)C6)nc4c3F)c12` (single isomer, unassigned) [Example 2-Isomer 2, 4-(2-((2-oxabicyclo[2.1.1]hexan-4-yl)methoxy)-4-(3,8-diazabicyclo[3.2.1]octan-3-yl)-6-chloro-8-fluoroquinazolin-7-yl)-2-amino-7-fluorobenzo[b]thio phene-3-carbonitrile], the IC50 was > 10000 nM. `COC1(COc2nc(N3CC4CCC(C3)N4)c3cc(C(F)(F)F)c(-c4ccc(F)c5sc(N)c(C#N)c45)c(F)c3n2)CCOC1` (single isomer, unassigned) [Example 3-Isomer 3, 4-(4-(3,8-diazabicyclo[3.2.1]octan-3-yl)-8-fluoro-2-((3-methoxytetra hydrofuran-3-yl)methoxy)-6-(trifluoromethyl)quinazolin-7-yl)-2-amino-7-fluoro benzo[b]thiophene-3-carbonitrile] showed an IC50 of 96 nM. `COC1(COc2nc(N3CC4CCC(C3)N4)c3cc(C(F)(F)F)c(-c4ccc(F)c5sc(N)c(C#N)c45)c(F)c3n2)CCOC1` (single isomer, unassigned) [Example 3-Isomer 4, 4-(4-(3,8-diazabicyclo[3.2.1]octan-3-yl)-8-fluoro-2-((3-methoxytetra hydrofuran-3-yl)methoxy)-6-(trifluoromethyl)quinazolin-7-yl)-2-amino-7-fluoro benzo[b]thiophene-3-carbonitrile] showed an IC50 of 273 nM. For `N#Cc1c(N)sc2c(F)ccc(-c3c(C(F)(F)F)cc4c(N5C6CCC5CNC6)nc(OCC56COC(C5)C6)nc4c3F)c12` (single isomer, unassigned) [Example 9-Isomer 1, 4-(2-((2-oxabicyclo[2.1.1]hexan-4-yl)methoxy)-4-(3,8-diazabicyclo[3.2.1]octan-8-yl)-8-fluoro-6-(trifluoromethyl)quinazolin-7-yl)-2-amino-7-fluorobenzo[b]thiophene-3-carbonitrile], the IC50 was > 10000 nM. Compound `N#Cc1c(N)sc2c(F)ccc(-c3c(C(F)(F)F)cc4c(N5C6CCC5CNC6)nc(OCC56COC(C5)C6)nc4c3F)c12` (single isomer, unassigned) [Example 9-Isomer 2, 4-(2-((2-oxabicyclo[2.1.1]hexan-4-yl)methoxy)-4-(3,8-diazabicyclo[3.2.1]octan-8-yl)-8-fluoro-6-(trifluoromethyl)quinazolin-7-yl)-2-amino-7-fluorobenzo[b]thiophene-3-carbonitrile] has an IC50 of 103 nM. With `N#Cc1c(N)sc2c(F)ccc(-c3c(C(F)(F)F)cc4c(N5CC6CCC(C5)N6)nc(OCC5(C#N)CCOC5)nc4c3F)c12` (single isomer, unassigned) [Example 10-Isomer 1, 3-(((7-(2-amino-3-cyano-7-fluorobenzo[b]thiophen-4-yl)-4-(3,8-diazabicyclo[3.2.1]octan-3-yl)-8-fluoro-6-(trifluoromethyl)quinazolin-2-yl)oxy)methyl)tetrahydrofuran-3-carbonitrile] the IC50 was > 10000 nM. `N#Cc1c(N)sc2c(F)ccc(-c3c(C(F)(F)F)cc4c(N5CC6CCC(C5)N6)nc(OCC5(C#N)CCOC5)nc4c3F)c12` (single isomer, unassigned) [Example 10-Isomer 2, 3-(((7-(2-amino-3-cyano-7-fluorobenzo[b]thiophen-4-yl)-4-(3,8-diazabicyclo[3.2.1]octan-3-yl)-8-fluoro-6-(trifluoromethyl)quinazolin-2-yl)oxy)methyl)tetrahydrofuran-3-carbonitrile] was tested, and the IC50 was > 10000 nM. `N#Cc1c(N)sc2c(F)ccc(-c3c(C(F)(F)F)cc4c(N5CC6CCC(C5)N6)nc(OCC5(C#N)CCOC5)nc4c3F)c12` (single isomer, unassigned) [Example 10-Isomer 3, 3-(((7-(2-amino-3-cyano-7-fluorobenzo[b]thiophen-4-yl)-4-(3,8-diazabicyclo[3.2.1]octan-3-yl)-8-fluoro-6-(trifluoromethyl)quinazolin-2-yl)oxy)methyl)tetrahydrofuran-3-carbonitrile] showed an IC50 of 42 nM. In the case of `N#Cc1c(N)sc2c(F)ccc(-c3c(C(F)(F)F)cc4c(N5CC6CCC(C5)N6)nc(OCC5(C#N)CCOC5)nc4c3F)c12` (single isomer, unassigned) [Example 10-Isomer 4, 3-(((7-(2-amino-3-cyano-7-fluorobenzo[b]thiophen-4-yl)-4-(3,8-diazabicyclo[3.2.1]octan-3-yl)-8-fluoro-6-(trifluoromethyl)quinazolin-2-yl)oxy)methyl)tetrahydrofuran-3-carbonitrile], the IC50 is reported as 56 nM. In the case of `N#Cc1c(N)sc2c(F)ccc(-c3c(C(F)(F)F)cc4c(N5CC6CCC(C5)N6)nc(OCC5(C(F)F)CCOC5)nc4c3F)c12` (single isomer, unassigned) [Example 14-Isomer 4, 4-(4-(3,8-diazabicyclo[3.2.1]octan-3-yl)-2-((3-(difluoromethyl)tetrahydrofuran-3-yl)methoxy)-8-fluoro-6-(trifluoromethyl)quinazolin-7-yl)-2-amino-7-fluorobenzo[b]thiophene-3-carbonitrile], the IC50 is reported as 138 nM. With `N#Cc1c(N)sc2c(F)ccc(-c3c(C(F)(F)F)cc4c(N5CC6CCC(C5)N6)nc(OCC5(C#N)CCOCC5)nc4c3F)c12` (single isomer, unassigned) [Example 22-Isomer 1, 4-(((7-(2-amino-3-cyano-7-fluorobenzo[b]thiophen-4-yl)-4-(3,8-diazabicyclo[3.2.1]octan-3-yl)-8-fluoro-6-(trifluoromethyl)quinazolin-2-yl)oxy)methyl)tetrahydro-2H-pyran-4-carbonitrile] the IC50 was > 10000 nM.

Same assay, conditions: Homo sapiens, ASPC1, 2 h, 2 h compound treatment
In the case of `COC1(COc2nc(N3CC4CCC(C3)N4)c3cc(C(F)(F)F)c(-c4ccc(F)c5sc(N)c(C#N)c45)c(F)c3n2)CCOCC1` (single isomer, unassigned) [Example 4-Isomer 2, 4-(4-(3,8-diazabicyclo[3.2.1]octan-3-yl)-8-fluoro-2-((4-methoxytetrahydro-2H-pyran-4-yl)methoxy)-6-(trifluoromethyl)quinazolin-7-yl)-2-amino-7-fluorobenzo[b]thiophene-3 carbonitrile], the IC50 is reported as 100 nM. With `N#Cc1c(N)sc2c(F)ccc(-c3c(Cl)cc4c(N5C6CCC5CNC6)nc(OCC56COC(C5)C6)nc4c3F)c12` (single isomer, unassigned) [Example 5-Isomer 2, 4-(2-((2-oxabicyclo[2.1.1]hexan-4-yl)methoxy)-4-(3,8-diazabicyclo [3.2.1]octan-8-yl)-6-chloro-8-fluoroquinazolin-7-yl)-2-amino-7-fluorobenzo[b]thio phene-3-carbonitrile] the IC50 was 44 nM. In the case of `COCC12CC(COc3nc(N4CC5CCC(C4)N5)c4cc(C(F)(F)F)c(-c5ccc(F)c6sc(N)c(C#N)c56)c(F)c4n3)(CO1)C2` (single isomer, unassigned) [Example 11-Isomer 2, 4-(4-(3,8-diazabicyclo[3.2.1]octan-3-yl)-8-fluoro-2-((1-(methoxymethyl)-2-oxabicyclo[2.1.1]hexan-4-yl)methoxy)-6-(trifluoromethyl)quinazolin-7-yl)-2-amino-7-fluorobenzo[b]thiophene-3-carbonitrile], the IC50 is reported as 37 nM. `N#Cc1c(N)sc2c(F)ccc(-c3c(C(F)(F)F)cc4c(N5CC6CCC(C5)N6)nc(OCC5(C(F)F)CCOC5)nc4c3F)c12` (single isomer, unassigned) [Example 14-Isomer 3, 4-(4-(3,8-diazabicyclo[3.2.1]octan-3-yl)-2-((3-(difluoromethyl)tetrahydrofuran-3-yl)methoxy)-8-fluoro-6-(trifluoromethyl)quinazolin-7-yl)-2-amino-7-fluorobenzo[b]thiophene-3-carbonitrile] showed an IC50 of 172 nM.
